Ki data for 9 compounds are collected here from patent US6777422B2, “Substituted tetrahydroisoquinolines as C5a receptor modulators” (Neurogen Corp., priority 2002, dated 2004).

One test deals with T1, human C5a receptor (Homo sapiens, UniProt P21730).
T1 construct: endogenous in cells; host or cells: U937 cells differentiated with 1 mM dibutyryl cAMP
T1 sequence (P21730 1-350): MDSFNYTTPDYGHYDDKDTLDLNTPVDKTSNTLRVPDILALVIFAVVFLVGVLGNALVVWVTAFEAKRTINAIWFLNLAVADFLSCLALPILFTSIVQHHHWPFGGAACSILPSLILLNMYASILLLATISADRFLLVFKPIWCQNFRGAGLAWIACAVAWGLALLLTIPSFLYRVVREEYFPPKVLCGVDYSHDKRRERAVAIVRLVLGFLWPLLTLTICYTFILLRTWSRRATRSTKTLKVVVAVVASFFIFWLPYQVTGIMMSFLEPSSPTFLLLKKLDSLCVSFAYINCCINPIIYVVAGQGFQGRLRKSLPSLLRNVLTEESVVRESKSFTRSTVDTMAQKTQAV
As to the kind of experiment: C5a receptor mediated calcium mobilization assay (Example 20). In kind it is cell-based. As to conditions: differentiated U937 cells, read-out: Ca2+ (Ki in the standard assay of C5a receptor mediated calcium mobilization). The gist of the method: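 Differentiated U937 cells (dibutyryl cAMP, 48 h) loaded with Fluo-3 were pre-incubated 1 h with compound at 1 μM, then challenged with 0.3 nM (final) human recombinant C5a. Calcium response monitored by FLIPR fluorescence (Ex 480/Em 530 nm); antagonism defined as ≥2-fold decrease versus C5a alone.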
In general terms: Calcium assays in cells follow changes in intracellular calcium, usually with a dye or a luminescent sensor.
For the compound `C[C@@H](C(=O)N(Cc1ncccc1F)C1Cc2ccccc2C1)N1CCc2ccccc2[C@@H]1c1cccc2ccccc12` [Compound 126, (2S)-N-(indan-2-yl)-N-[(3-fluoropyridin-2-yl)methyl]-2-[(1R)-1-(1-naphthyl)-3,4-dihydroisoquinolin-2(1H)-yl]propanamide], the Ki is less than 1000 nM.

On to `COc1cncc(CN(C(=O)[C@H](C)N2CCc3ccccc3[C@@H]2c2cccc3ccccc23)C2Cc3ccccc3C2)c1` [Compound 127, (2S)-N-(indan-2-yl)-N-[(5-methoxypyridin-3-yl)methyl]-2-[(1R)-1-(1-naphthyl)-3,4-dihydroisoquinolin-2(1H)-yl]propanamide], for which the Ki was less than 1000 nM.

Still in this test, the particulars now being: differentiated U937 cells, unit inferred, read-out: Ca2+ (numeric value, C5a receptor mediated calcium mobilization).
For the compound `Cc1ccccc1C1C(C)CCCN1CC(=O)N(Cc1ccccc1F)C1Cc2ccccc2C1` (stereo not drawn) [Compound 128, N-(2-Fluoro-benzyl)-N-indan-2-yl-2-(3-methyl-2-o-tolyl-piperidin-1-yl)-acetamide], the Ki was determined as 547 nM.

For `Cc1ccccc1C1CCCCN1CC(=O)N(Cc1ccccc1F)C1Cc2ccccc2C1` (stereo not drawn) [Compound 129, N-(2-Fluoro-benzyl)-N-indan-2-yl-2-(2-o-tolyl-piperidin-1-yl)-acetamide], the Ki amounted to 131 nM.

As for `COc1ccccc1C1CCCCN1CC(=O)N(Cc1ccccc1F)C1Cc2ccccc2C1` (stereo not drawn) [Compound 130, N-(2-Fluoro-benzyl)-N-indan-2-yl-2-[2-(2-methoxy-phenyl)-piperidin-1-yl]-acetamide], the Ki was determined as 405 nM.

With `CN(CC(=O)N(Cc1ccccc1F)C1Cc2ccccc2C1)C(c1ccccc1)c1ccccc1` [Compound 133, 2-(Benzhydryl-methyl-amino)-N-(2-fluoro-benzyl)-N-indan-2-yl-acetamide], the Ki came out at 465 nM.

As to `CC1=C(C)C(c2ccccc2)N(CC(=O)N(Cc2ccccc2F)C2Cc3ccccc3C2)CC1` (stereo not drawn) [Compound 134, 2-(4,5-Dimethyl-6-phenyl-3,6-dihydro-2H-pyridin-1-yl)-N-(2-fluoro-benzyl)-N-indan-2-yl-acetamide], the Ki was 575 nM.

On to `CC1=C(C)C(c2ccccc2C)N(CC(=O)N(Cc2ccccc2F)C2Cc3ccccc3C2)CC1` (stereo not drawn) [Compound 135, 2-(4,5-Dimethyl-6-o-tolyl-3,6-dihydro-2H-pyridin-1-yl)-N-(2-fluoro-benzyl)-N-indan-2-yl-acetamide], for which the Ki is 193 nM.

In the case of `Cc1ccccc1C1c2ccsc2CCN1CC(=O)N(Cc1ccccc1F)C1Cc2ccccc2C1` (stereo not drawn) [Compound 136, N-(2-Fluoro-benzyl)-N-indan-2-yl-2-(4-o-tolyl-6,7-dihydro-4H-thieno[3,2-c]pyridin-5-yl)-acetamide], the Ki amounted to 39.9 nM.
